From paper PMC5845537 (Frontiers in Pharmacology, 2018)

Legend:
[1] = system: C57BL/6NCrlBr mice; assay: Mouse object recognition (OR) task after subchronic PCP; assay type: in vivo
Method: (§1) Subchronic PCP treatment: The subPCP administration regimen used in rats was conducted as described in ([Goetghebeur and Dias, 2009]), which is a reliable method for inducing deficits in our hands. Rats in the subPCP experiments received injections of 5 mg/mL PCP or vehicle (saline) s.c. at a 1 mL/kg injection volume twice per day for 7 days. […] The mouse subPCP regimen was conducted as described in [Pedersen et al. (2014)]. Briefly, mice received vehicle or PCP (1.3 mg/mL concentration, 10 mL/kg injection volume) s.c once per day for 14 days followed by a 7-day washout prior to experimentation.
(§2) Object placement and OR tasks in mice were executed in Perspex boxes measuring 40 × 40 cm with dark gray walls and a white floor. The tests were conducted during the light phase, yet in a subdued light (≈20 lux) and with the radio turned on in the background. Each trial was recorder by a camera mounted above the test arenas and later scored manually.
(§3) Objects in the mouse OP task consisted of small stork sculptures made of plaster, which were 11.5 cm in height, with a roughly rectangle-shaped base 7.5 cm in length and 4.8 cm in width. For the mouse OR task, objects consisted of (1) small cylindrical pepper mills (purchased empty, having never contained spice) made of clear plastic (10.5 cm in height, 4.5 cm diameter), and (2) small salt shakers made of light blue glass (again, purchased empty; 11.5 cm in height, 4.5 cm diameter). […]
(§4) The primary dependent measure for the OR and object placement tasks was a novel object or novel placement preference score, which were calculated from raw object investigation times using the following equation: Preference Score = ITN/(ITN + ITF)^∗100, where ITN represents the investigation time for the novel object or placement, and ITF represents the investigation for the familiar object or placement. Total exploration times from the information and test trials were analyzed for OP and OR experiments. Preference score and total exploration time data was analyzed for treatment group differences using a one-way between-subjects ANOVA. […]

[2] = system: C57BL/6NCrlBr mice; assay: Mouse object placement (OP) task after subchronic PCP; assay type: in vivo
Method: as §1, §2, §3, §4

Cl.c1ccc(C2(N3CCCCC3)CCCCC2)cc1 [PCP, 1-(1-phenylcyclohexyl)-piperidine hydrochloride]
novel object preference score ([1]; subPCP/veh vs control mice, PCP 13 mg/kg s.c. once per day 14 days, 7-day washout, p < 0.001): significantly lower novel object preference scores | novel placement preference score ([2]; subPCP/vehicle vs vehicle/vehicle mice, p < 0.01): significantly reduced novel placement preference scores

Cc1ccc(Sc2ccccc2N2CCNCC2)c(C)c1 [vortioxetine]
novel object preference score, vehicle/vortioxetine vs vehicle/vehicle ([1]; mice without PCP, 10 mg/kg s.c. bolus then 0.6 g/kg chow): no statistically significant difference | novel object preference score vs subPCP/vehicle ([1]; subPCP/vortioxetine mice, 10 mg/kg s.c. bolus then 0.6 g/kg chow, p < 0.01): significantly higher novel object preference scores | attenuation of subPCP-induced object placement task impairment ([2]; subPCP-treated mice, 10 mg/kg s.c. bolus plus seven days 0.6 g/kg chow, p < 0.05): significantly attenuated | object placement task performance vs vehicle/vehicle ([2]; vortioxetine/vehicle group, mice without PCP): did not perform significantly better
